# Test results from patent US11179474B1, “Nanoparticle-based liver-targeting therapy and imaging” (priority 2015, dated 2021).
# Where no end group is shown, it is not given here.
# Legend:
# [1] = system: HepG2; assay: MTT cell viability assay, payload-carrying LacLL nanoparticles vs free drug; assay type: cell-based, human; conditions: for IC50: HepG2, concentration based on drug amount, FIG. 7: 72 h after treatment
# Experimental: The human hepatocellular carcinoma cell line HepG2 was used in the assay.
# HepG2 cells were grown in a T-75 flask. For the transfer of the cell the medium was removed from the flask and the cells were trypsinated for 5 minutes. The cells were collected in a Falcon tube and diluted with complete cell medium. The cell counting was conducted in a Neubauer chamber. A cell solution was prepared to seed 4000 cells per well (200 μL per well). The microtiter plate was incubated for 24 h at 37° C.
# For each NP and drug, formulations in cell medium were prepared. The compounds were tested in different concentrations (0.01, 0.05, 0.2, 1, 5, 25 and 125 μM based on drug amount). For the treatment, the cell medium was removed from all wells and exchanged for drug formulations. 200 μl of treatments per triplicate was added to each well. The microtiter plates were incubated for 24 h, 48 h and 72 h at 37° C.
# 1.5 mL MTT solution (8.0 mg in 1.6 mL DMSO) was diluted with complete cell medium (phenol-red free). The treatment cell medium was removed from the microtiter plate, the wells were washed with 100 μL PBS and 100 μL of the MTT reactive solution was added to each well. After one hour incubation at 37° C. the MTT solution was removed and 100 μL DMSO was added to dissolve the formazan dye. Absorbance was measured at 570 nm.
# Data were analysed using OriginPro8. The normalized data were plotted and the curve was fitted using a non-linear regression curve fit (sigmoidal dose-response curve with variable slope). The Absolute IC50 values were obtained by interpolation.
# [2] = system: HCC cells; assay: In vitro targeting of GNPs to HCC cells (counts per field at 20x magnification); assay type: cell-based; conditions: relative to base GNP lacking the peptide
# Excerpt: (SEQ ID NO: 1), via its N-terminus (approx. 4 peptide molecules per nanoparticle).
# Several base/peptide targeted GNPs were screened in vitro. GNPs having a mixed corona comprising galactose-C2-SH (Gal-C2) ligands and HSPEG8COOH were synthesised according to methodology analogous to that described above in Examples 1 and 2, with however galactose-C2-SH replacing glucose-C2-SH and HSPEG8COOH (also abbreviated SH-EG6-COOH or SH—(OCH2CH2)6-COOH) replacing the amino linker NH2-EG6-SH.
# The glypican-3 peptide described in U.S. Pat. No. 8,388,937B2 (the contents of which are expressly incorporated herein by reference)—see SEQ ID NO: 1 thereof, which has the amino acid sequence: […] (SEQ ID NO: 1) was linked to the terminal COOH group of a proportion of the HSPEG8COOH ligands via the N-terminus of said peptide. In a “high loading” GNP construct (see row 1 in the table below), approximately 4 peptides were linked per nanoparticle core. The “high loading” Au@Gal-C2:HSPEG8COOH:HSPEG8CONH[…] The “low loading” Au@Gal-C2:HSPEG8COOH:HSPEG8CONH[…]
# [3] = target: T1, glypican-3 (on HCC cells) (UniProt P51654 25-554); assay: in vitro targeting of GNPs to HCC cells, counts per field at 20x magnification, relative to base GNP lacking the peptide
# T1 construct: whole, on cells; also called GLY-3
# T1 sequence (P51654 25-554 limits assumed, form in doubt): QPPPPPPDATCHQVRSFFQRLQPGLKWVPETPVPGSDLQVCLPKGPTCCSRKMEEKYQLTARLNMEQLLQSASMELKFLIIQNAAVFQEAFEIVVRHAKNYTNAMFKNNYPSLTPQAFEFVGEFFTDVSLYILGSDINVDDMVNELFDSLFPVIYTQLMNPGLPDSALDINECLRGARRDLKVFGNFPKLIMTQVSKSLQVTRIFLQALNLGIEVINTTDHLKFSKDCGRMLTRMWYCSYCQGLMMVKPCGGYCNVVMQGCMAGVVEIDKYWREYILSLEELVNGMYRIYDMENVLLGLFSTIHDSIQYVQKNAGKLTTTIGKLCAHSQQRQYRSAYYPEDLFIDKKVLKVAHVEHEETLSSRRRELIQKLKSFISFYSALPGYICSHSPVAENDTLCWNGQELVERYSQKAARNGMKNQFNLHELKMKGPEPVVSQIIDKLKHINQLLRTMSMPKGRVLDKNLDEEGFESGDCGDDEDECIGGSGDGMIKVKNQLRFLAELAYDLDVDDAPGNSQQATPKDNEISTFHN
# [4] = target: T1, glypican-3 (on HCC cells); assay: in vitro targeting of GNPs to HCC cells, relative to base GNP lacking the peptide
# [5] = target: T1, glypican-3 (on HCC cells); assay: in vitro targeting of GNPs to HCC cells, relative to base nanoparticle lacking the peptide
molecule,measurement,setting,value
"COc1cccc2c1C(=O)c1c(O)c3c(c(O)c1C2=O)C[C@@](O)(C(=O)CO)C[C@@H]3O[C@H]1C[C@H](N)[C@H](O)[C@H](C)O1 [Doxorubicin, doxorubicin]","cytotoxicity, free drug compared with pay-loaded nanoparticle","[1]; HepG2, MTT",slightly higher cytotoxicity
GNP-GalC2(50)-AL(50)-(Ac)YFLTTRQ,Fold-targeting (over base particle),[2]; listed as Au@GalC2:AL:AL-(Ac)-YFLTTRQ,approximately 5 fold
GNP-GalC2-HSPEG8COOH-HSPEG8CONHRLNVGGTYFLTTRQ ″high loading″ (not fully specified (N-terminus); also: on gold nanoparticle with galactose-C2 corona),Fold-targeting (over base particle),[2]; listed as “high loading” Au@Gal-C2:HSPEG8COOH:HSPEG8CONHRLNVGGTYFLTTRQ,approximately 7 fold
GNP-GalC2-HSPEG8COOH-HSPEG8CONHRLNVGGTYFLTTRQ ″low loading″ (not fully specified (N-terminus); printed as GNP-GalC2-HSPEG8COOH-HSPEG8CONHRLNVGGTYFLTTRQ ″low loading″; also: on gold nanoparticle with galactose-C2 corona),Fold-targeting (over base particle),[2]; listed as “low loading” Au@Gal-C2:HSPEG8COOH:HSPEG8CONHRLNVGGTYFLTTRQ,approximately 4.6 fold
platinum-(IV)-succinate,IC50,[1],38.6 µM
same,IC50,[1]; listed as Pt(IV)-succinate,38.6 µM
"RLNVGGTYFLTTRQ (not fully specified (N-terminus); also: on gold nanoparticle with galactose-C2 corona, Gold nanoparticle with a corona of galactose-C2 and HSPEG8COOH ligands; Approximately 4 peptides per nanoparticle core, so the copy number is approximate; also called ""high loading"" Au@Gal-C2:HSPEG8COOH:HSPEG8CO… GNPs) [GNP-GalC2-HSPEG8COOH-HSPEG8CO… ″high loading″]",Fold-targeting (over base particle),[3],7.1 fold
"RLNVGGTYFLTTRQ (not fully specified (N-terminus); printed as GNP-GalC2-HSPEG8COOH-HSPEG8CONHRLNVGGTYFLTTRQ ″low loading″; also: on gold nanoparticle with galactose-C2 corona, Same construct as the high loading GNP but with fewer peptides per nanoparticle; also called ""low loading"" Au@Gal-C2:HSPEG8COOH:HSPEG8CO… GNPs) [GNP-GalC2-HSPEG8COOH-HSPEG8CO… ″low loading″]",Fold-targeting (over base particle),[4],4.6 fold
"YFLTTRQ (not fully specified (N-terminus); printed as GNP-GalC2(50)-AL(50)-(Ac)YFLTTRQ; also: linked via amino linker NH2-EG6-SH to gold nanoparticle with galactose-C2 corona, Gold nanoparticle with a corona of galactose-C2-SH and amino linker in approximately 50:50 ratio; also called Au@GalC2:AL:AL-(Ac)-YFLTTRQ) [GNP-GalC2(50)-AL(50)-(Ac)YFLTTRQ]",Fold-targeting (over base particle),[5],5 fold
